From patent US20260042764A1, “COMPOSITIONS AND METHODS FOR INHIBITION OF KRAS” (TheRas, Inc., priority 2022, published 2026)
pIC50: −log10 of the molar value.

What was measured:
[1] = system: AsPC-1 cells (KRAS G12D); assay: Cell-based pERK HTRF assay in AsPC-1 cells (Biological Example 5)
In short: (§1)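 Cells seeded at 2.5×10^4/well in 10% FBS medium overnight, then treated 2 h at 37 °C with a 9-point, 3-fold compound series (0.25% DMSO). Lysates read by HTRF for pERK1/2 (Thr202/Tyr204), 665/620 nm ratio; EC50 from four-parameter fit.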

[2] = system: SW1900 cells (KRAS G12D); assay: Cell-based pERK HTRF assay in SW1900 cells (Biological Example 5)
In short: as §1

[3] = system: HPAC cells (KRAS G12D); assay: Cell-based pERK HTRF assay in HPAC cells (Biological Example 5)
In short: as §1

[4] = system: Capan-2 cells (KRAS G12V); assay: Cell-based pERK HTRF assay in Capan-2 cells (Biological Example 5)
In short: as §1

[5] = system: H358 cells (KRAS G12C); assay: Cell-based pERK HTRF assay in H358 cells (Biological Example 5)
Protocol: (§2) Biological Example 5: Cell-based PERK HTRF assay in AsPC-1, SW1900, HPAC, Capan-2, RKN, H358, HCT116, KP-2, H1573, A549, MKN1, and HT1080 cells
(§3) The inhibition of ERK phosphorylation, as measured using the HTRF Advanced Phospho-ERK 1/2 (Thr202/Tyr204) Detection Assay kit (Perkin Elmer), was used to determine the effectiveness of test compounds in disrupting KRAS-driven protein/effector signaling in cells.
(§4) On day 1, cells were seeded into 96-well plates at 2.5×10^4 cells/well in 100 μL of complete growth media supplemented with 10% fetal bovine serum (FBS) and incubated at 37° C., in the presence of 5% CO2.
(§5) On day 2, cells were treated with compounds diluted in DMSO at 0.25% final DMSO concentration. Compounds were dosed in a 9-point concentration curve with three-fold dilution between concentrations. Cells were incubated in the presence of compound for two hours at 37° C. Following this treatment period, cells were harvested by aspirating the media, adding 40 μL of kit-supplied 1x lysis buffer per well, and shaking for 30 minutes at 250 rpm at room temperature.
(§6) Following cell lysis, samples were homogenized by pipetting up and down twenty times and 16 μL of cell lysate per well was transferred from the 96-well cell culture plate to two wells of a 384-well detection plate. A complete detection buffer was prepared by diluting D2 and Eu Cryptate antibodies 1:20 in kit-provided detection solution, 4 μL of complete detection buffer was then added to each well with lysate. Plates were incubated with gentle rocking for 24 hours at 4° C.
(§7) Following this incubation period, plates were centrifuged at 500×g for one minute and analyzed on a CLARIOstar plate reader. Data was imported into Microsoft Excel and the signal from the 665 nm channel was divided by the signal from the 620 nm channel. % pERK was calculated as: […]
(§8) Data was imported to the Prism software package (Graphpad) and EC50 values were calculated using the log (inhibitor) vs, response—variable slopc (Four parameters) model.

[6] = system: MKN1 cells (KRAS amplification); assay: Cell-based pERK HTRF assay in MKN1 cells (Biological Example 5)
In short: as §1

[7] = system: HT1080 cells (NRAS); assay: Cell-based pERK HTRF assay in HT1080 cells (Biological Example 5)
In short: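 Cells seeded at 2.5×10^4/well in 10% FBS medium overnight, then treated 2 h at 37° C with a 9-point, three-fold compound dilution series (0.25% DMSO final). Lysates were read by HTRF for pERK1/2 (Thr202/Tyr204) after 24 h at 4° C; EC50 came from a four-parameter fit of 665/620 nm ratios.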

[8] = system: AsPC-1 cells (KRAS G12D); assay: 3D Cell viability assay in AsPC-1 cells (Biological Example 6); format: cell-based; conditions: Homo sapiens, ASPC1; AsPC-1 (KRAS G12D) spheroids, 72 hours
Protocol: Biological Example 6: 3D Cell viability assay in AsPC-1, SW1900, HPAC, Capan-2, RKN, H358, HCT116, KP-2, H1573, A549, MKN1, and HT1080 cells
The inhibition of cellular viability as a result of test compound treatment in a spheroid assay was measured using the CellTiter-Glow 3D Cell Viability Assay (Promega).
On Day 1, 1000 cells per well were seeded in 150 μL of complete growth media supplemented with 10% fetal bovine serum (FBS) and incubated at 37° C., in the presence of 5% CO2 in 96-well ultra-low attachment microplates (Corning) for 48 hours undisturbed to allow spheroids to form.
Following spheroid formation, cells were treated with compounds diluted in DMSO at 0.25% final DMSO concentration. Compounds were dosed in a 9-point concentration curve with three-fold dilution between concentrations. Cells were incubated in the presence of compound for 72 hours at 37° C., in the presence of 5% CO2.
Following this incubation period, the kit-provided CTG reagent was allowed to equilibrate for 30 minutes at room temperature, 150 μL of equilibrated CTG reagent was added to each well, and the plate was sealed before shaking at 250 rpm for 10 minutes at room temperature to lyse the cells, 150 μL of lysate per well was transferred to a 96-well plate and luminescence was read on a CLARIOstar plate reader.
Data was imported into the Prism software package (Graphpad) and EC50 values were calculated using the log (inhibitor) vs, response—variable slope (Four parameters) model.

[9] = system: SW1900 cells (KRAS G12D); assay: 3D Cell viability assay in SW1900 cells (Biological Example 6); format: cell-based; conditions: Homo sapiens; SW1990 (text: SW1900, KRAS G12D) spheroids, 72 hours
In short: (§9)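 EC50 values come from a four-parameter variable-slope fit of CellTiter-Glo 3D luminescence in spheroid cultures treated 72 h with a nine-point, three-fold dilution series.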

[10] = system: HPAC cells (KRAS G12D); assay: 3D Cell viability assay in HPAC cells (Biological Example 6); format: cell-based; conditions: Homo sapiens, HPAC, 72 h, HPAC (KRAS G12D) spheroids
In short: as §9

[11] = system: Capan-2 cells (KRAS G12V); assay: 3D Cell viability assay in Capan-2 cells (Biological Example 6); format: cell-based; conditions: Homo sapiens; Capan-2 (KRAS G12V) spheroids, 72 hours
In short: as §9

[12] = system: H358 cells (KRAS G12C); assay: 3D Cell viability assay in H358 cells (Biological Example 6); format: cell-based; conditions: Homo sapiens, NCI-H358; H358 (KRAS G12C) spheroids, 72 hours
In short: as §9

[13] = system: MKN1 cells (KRAS amplification); assay: 3D Cell viability assay in MKN1 cells (Biological Example 6); format: cell-based; conditions: Homo sapiens, MKN-1; MKN (MKN1, KRAS amplification) spheroids, 72 hours
In short: as §9

[14] = system: HT1080 cells (NRAS); assay: 3D Cell viability assay in HT1080 cells (Biological Example 6); format: cell-based; conditions: Homo sapiens, HT-1080; HT1080 (NRAS) spheroids, 72 hours
In short: as §9

[15] = system: RKN cells (KRAS G12V); assay: Cell-based pERK HTRF assay in RKN cells (Biological Example 5)
Protocol: as §2, §3, §4, §5, §6, §7, §8

[16] = system: RKN cells (KRAS G12V); assay: 3D Cell viability assay in RKN cells (Biological Example 6); format: cell-based; conditions: RKN (KRAS G12V) spheroids, 72 hours
In short: as §9

[17] = Homo sapiens, ASPC1, AsPC-1 (KRAS G12D) cells
[18] = Homo sapiens, SW1990, SW1990 cells (text: SW1900, KRAS G12D)
[19] = Homo sapiens, Capan-2, Capan-2 (KRAS G12V) cells
[20] = Homo sapiens, NCI-H358, H358 (KRAS G12C) cells
[21] = Homo sapiens, MKN-1, MKN cells (MKN1, KRAS amplification)

| pIC50 [1, 17] | pIC50 [2, 18] | pIC50 ([3]; Homo sapiens, HPAC) | pIC50 [4, 19] | pIC50 [5, 20] | pIC50 [6, 21] | pIC50 ([7]; Homo sapiens, HT-1080) | pIC50 [8] | pIC50 [9] | pIC50 [12] | pIC50 [13] | pIC50 [14] | Structure (SMILES) | pIC50 [10] | pIC50 [11] | further results |
| --- | --- | --- | --- | --- | --- | --- | --- | --- | --- | --- | --- | --- | --- | --- | --- |
| ≥ 7.00 | ≥ 7.00 | ≥ 7.00 | ≥ 7.00 | ≥ 7.00 | ≥ 7.00 | < 6.00 | ≥ 7.00 | ≥ 7.00 | ≥ 7.00 | ≥ 7.00 | < 6.00 | CCN(c1nc(OC[C@@]23CCCN2C[C@H](F)C3)nc2c(F)c(-c3ccc(F)c4sc(N)c(C#N)c34)c(C(F)(F)F)cc12)[C@H]1CCS(=O)(=O)C1 (atropisomer, axis not shown) [Compound 492] | ≥ 7.00 | ≥ 7.00 | – |
| ≥ 7.00 | ≥ 7.00 | 6.00 to 7.00 | ≥ 7.00 | ≥ 7.00 | ≥ 7.00 | < 6.00 | ≥ 7.00 | ≥ 7.00 | ≥ 7.00 | 6.00 to 7.00 | < 6.00 | Cc1cc2n(n1)CCN(c1nc(OCC34CCCN3CC(F)C4)nc3c(F)c(-c4ccc(F)c5sc(N)c(C#N)c45)c(C(F)(F)F)cc13)C2 (stereo not shown) [Compound 484] | 6.00 to 7.00 | ≥ 7.00 | – |
| – | – | – | – | – | – | – | – | – | – | – | – | CCN(c1nc(OC[C@@]23CCCN2C[C@H](F)C3)nc2c(F)c(-c3ccc(F)c4sc(N)c(C#N)c34)c(C(F)(F)F)cc12)[C@H]1CCN(C(=O)C(C)C)C1 (atropisomer, axis not shown) [Compound 468] | – | – | pIC50 ([1]; AsPC-1 (KRAS G12D) cells): < 6.00; pIC50 ([2]; SW1990 cells (text: SW1900, KRAS G12D)): < 6.00; pIC50 [3]: < 6.00; pIC50 ([4]; Capan-2 (KRAS G12V) cells): < 6.00; pIC50 ([5]; H358 (KRAS G12C) cells): < 6.00; pIC50 ([6]; MKN cells (MKN1, KRAS amplification)): < 6.00; pIC50 [7]: < 6.00 |
| ≥ 7.00 | ≥ 7.00 | ≥ 7.00 | ≥ 7.00 | ≥ 7.00 | ≥ 7.00 | – | ≥ 7.00 | ≥ 7.00 | ≥ 7.00 | ≥ 7.00 | – | CCN(c1nc(OC[C@@]23CCCN2C[C@H](F)C3)nc2c(F)c(-c3ccc(F)c4sc(N)c(C#N)c34)c(C(F)(F)F)cc12)[C@H]1C[C@H]2CN(C)C(=O)N2C1 (atropisomer, axis not shown; (aS)) [Compound 543, 2-amino-4-((S)-4-(ethyl((6S,7aS)-2-methyl-3-oxohexahydro-1H-pyrrolo[1,2-c]imidazol-6-yl)amino)-8-fluoro-2-(((2R,7aS)-2-fluorotetrahydro-1H-pyrrolizin-7a(5H)-yl)methoxy)-6-(trifluoromethyl)quinazolin-7-yl)-7-fluorobenzo[b]thiophene-3-carbonitrile] | ≥ 7.00 | ≥ 7.00 | pIC50 [15]: ≥ 7.00; pIC50 [16]: ≥ 7.00 |
